What was measured:
BRD9 [1] = molecular target: T1, BRD9 (Homo sapiens, UniProt Q9H8M2); assay: BRD9 degradation, HiBiT-BRD9 KI HEK293 (LgBiT) cells, NanoGlo Lytic Endpoint assay (Assay Protocol 1); assay type: cell-based; conditions: BRD9 degradation; for Dmax / Dmax at 1 µM: HEK293; for Dmax: read-out: Dmax^1; for Dmax at 1 µM: 1 μM compound at 6 h of treatment, read-out: Assay 1 Dmax
T1 sequence (Q9H8M2 1-597): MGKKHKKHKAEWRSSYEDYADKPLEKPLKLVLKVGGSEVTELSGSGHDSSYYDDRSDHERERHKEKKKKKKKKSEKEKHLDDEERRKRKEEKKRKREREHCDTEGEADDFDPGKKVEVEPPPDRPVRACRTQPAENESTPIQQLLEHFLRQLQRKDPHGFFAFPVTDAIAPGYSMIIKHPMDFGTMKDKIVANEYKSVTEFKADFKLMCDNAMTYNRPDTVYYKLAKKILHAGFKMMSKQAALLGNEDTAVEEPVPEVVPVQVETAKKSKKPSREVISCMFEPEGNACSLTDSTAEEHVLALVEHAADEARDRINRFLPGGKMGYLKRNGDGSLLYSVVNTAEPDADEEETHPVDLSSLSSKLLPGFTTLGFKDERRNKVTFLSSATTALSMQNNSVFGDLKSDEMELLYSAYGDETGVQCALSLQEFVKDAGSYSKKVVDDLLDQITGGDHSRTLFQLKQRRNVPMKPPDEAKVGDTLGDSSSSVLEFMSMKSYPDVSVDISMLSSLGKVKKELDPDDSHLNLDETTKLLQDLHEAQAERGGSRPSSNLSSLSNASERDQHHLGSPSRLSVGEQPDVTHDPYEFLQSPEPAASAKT
Method: HiBiT-BRD9 KI HEK293 (LgBiT) Cells (Promega CS3023412) were seeded at 8000 cells per well (38 μL) in sterile white bottom 384 well plates (Invitrogen 164610 or Greiner 781080) and incubated overnight at 37° C. with 5% CO2. The next day, compounds were prepared at 1000× final concentration in DMSO and diluted 1:100 in media (DMEM PAN Biotech P04-03550+10% FBS ATCC 302025). 4 μL compound was added to each well of the cell plate and incubated for 6 h at 37° C. with 5% CO2 BRD9 expression was quantified using the NanoGlo Lytic Endpoint assay (Promega N3050). The lytic buffer was equilibrated to room temperature for 10-15 min before lytic reagent was prepared by adding substrate (1:50) and LgBit protein (1:100) in lytic buffer. 40 μL lytic reagent mix was added to each well of the cel plate and plates were centrifuged briefly at ˜50g. Plates were incubated with shaking (350 RPM) for 12-24 min before reading using the LUM plus module of a BMG Pherastar FSX. Data was analysed using Dotmatics software and % BRD9 remaining was calculated by normalisation to average data from high and low control wells (DMSO treated cels and no cells respectively).

BRD9 [2] = molecular target: T1, BRD9; assay: Degradation of BRD9 (IF), immunofluorescence in MV4-11 cells, 24 hours (Assay Protocol 2); assay type: cell-based; parameters: A suspension of MV4-11 cells (ATCC CRL-9591) was prepared; host or cells: MV4-11; conditions: BRD9 degradation, determined according to Assay Protocol 2; for Dmax: MV4-11, Table 4, read-out: Dmax^2; for DC50: Table 4, read-out: DC50^2
In short: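 MV4-11 cells treated with compound 24 h at 37° C., then fixed, permeabilised and immunostained for BRD9 (anti-BRD9 E4Q3F, Alexa 647 secondary, Hoechst counterstain). High-content imaging quantified nuclear BRD9 signal; % BRD9 remaining normalised to DMSO and 100 nM CFT-8634 controls.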

[3] = Table 4, determined according to Assay Protocol 1, read-out: DC50^1
[4] = Table 4, determined according to Assay Protocol 1
[5] = Table 2, Assay Protocol 1, 6 h of treatment, read-out: Assay 1 DC50

Row | Compound | DC50 (BRD9 [1]; [3]) | Dmax (BRD9 [2]) | DC50 (BRD9 [2]) | Dmax (BRD9 [1]; [4]) | Dmax at 1 µM (BRD9 [1]; Table 2, Assay Protocol 1) | DC50 (BRD9 [1]; [5])
1 | COc1cc(-c2cn(C)c(=O)c(C)c2C)cc(OC)c1CN1CC2CC1CN2C(=O)/C(C#N)=C/c1cccc(Br)n1 (mixture of isomers) [BRD9j, (E/Z)-3-(6-bromopyridin-2-yl)-2-(5-(2,6-dimethoxy-4-(1,4,5-trimethyl-6-oxo-1,6-dihydropyridin-3-yl)benzyl)-2,5-diazabicyclo[2.2.1]heptane-2-carbonyl)acrylonitrile] | < 25 nM | > 70% | < 25 nM | – | – | –
2 | COc1cccc(/C=C(\C#N)C(=O)N2CC3CC2CN3Cc2c(OC)cc(-c3cn(C)c(=O)c(C)c3C)cc2OC)n1 (mixture of isomers) [BRD9k, (E/Z)-2-(5-(2,6-dimethoxy-4-(1,4,5-trimethyl-6-oxo-1,6-dihydropyridin-3-yl)benzyl)-2,5-diazabicyclo[2.2.1]heptane-2-carbonyl)-3-(6-methoxypyridin-2-yl)acrylonitrile] | < 25 nM | 50 to 70% | < 25 nM | – | – | –
3 | COc1cc(-c2cn(C)c(=O)c(C)c2C)cc(OC)c1CN1CC2CC(C1)N2C(=O)/C(C#N)=C/c1cccc(Br)n1 (mixture of isomers) [BRD9m, (E/Z)-3-(6-bromopyridin-2-yl)-2-(3-(2,6-dimethoxy-4-(1,4,5-trimethyl-6-oxo-1,6-dihydropyridin-3-yl)benzyl)-3,6-diazabicyclo[3.1.1]heptane-6-carbonyl)acrylonitrile] | < 25 nM | – | > 200 nM | > 70% | – | –
4 | COc1cc(-c2cn(C)c(=O)c(C)c2C)cc(OC)c1CN1C2CC1CN(C(=O)/C(C#N)=C/c1nccs1)C2 (mixture of isomers) [BRD9n, (E/Z)-2-(6-(2,6-dimethoxy-4-(1,4,5-trimethyl-6-oxo-1,6-dihydropyridin-3-yl)benzyl)-3,6-diazabicyclo[3.1.1]heptane-3-carbonyl)-3-(thiazol-2-yl)acrylonitrile] | – | – | 25 to 200 nM | 50 to 70% | – | –
5 | COc1cc(-c2cn(C)c(=O)c(C)c2C)cc(OC)c1CN1C2CC1CN(C(=O)/C(C#N)=C/C1(C(F)(F)F)CCC1)C2 (mixture of isomers) [BRD9p, (E/Z)-2-(6-(2,6-dimethoxy-4-(1,4,5-trimethyl-6-oxo-1,6-dihydropyridin-3-yl)benzyl)-3,6-diazabicyclo[3.1.1]heptane-3-carbonyl)-3-(1-(trifluoromethyl)cyclobutyl)acrylonitrile] | – | > 70% | – | > 70% | – | –
6 | COc1cc(-c2cn(C)c(=O)c(C)c2C)cc(OC)c1CN1CC2CCC(C1)N2C(=O)/C(C#N)=C/c1nccs1 (mixture of isomers) [BRD9q, (E/Z)-2-(3-(2,6-dimethoxy-4-(1,4,5-trimethyl-6-oxo-1,6-dihydropyridin-3-yl)benzyl)-3,8-diazabicyclo[3.2.1]octane-8-carbonyl)-3-(thiazol-2-yl)acrylonitrile] | – | – | < 25 nM | 50 to 70% | – | –
7 | COc1cc(-c2cn(C)c(=O)c3cnccc23)cc(OC)c1CN1CC2CC1CN2Cc1cccc2c1CCN(C(=O)/C(C#N)=C/C(C)(C)C)C2C (single isomer, unassigned) [Compound A39, (E/Z)-2-(5-((5-(2,6-dimethoxy-4-(2-methyl-1-oxo-1,2-dihydro-2,7-naphthyridin-4-yl)benzyl)-2,5-diazabicyclo[2.2.1]heptan-2-yl)methyl)-1-methyl-1,2,3,4-tetrahydroisoquinoline-2-carbonyl)-4,4-dimethylpent-2-enenitrile] | – | – | – | – | 40 to 70% | 1.25 to 10 nM
8 | COc1cc(-c2cn(C)c(=O)c(C)c2C)cc(OC)c1CN1CCN(Cc2cccc3c2CCN(C(=O)/C(C#N)=C/c2ccn(C)n2)C3C)CC1 (stereo not shown) [Compound A8, (E)-2-(5-((4-(2,6-dimethoxy-4-(1,4,5-trimethyl-6-oxo-1,6-dihydropyridin-3-yl)benzyl)piperazin-1-yl)methyl)-1-methyl-1,2,3,4-tetrahydroisoquinoline-2-carbonyl)-3-(1-methyl-1H-pyrazol-3-yl)acrylonitrile] | – | – | – | – | 40 to 70% | 10 to 25 nM

— patent publication US20260092061A1, “COMPOUNDS FOR TARGETED PROTEIN DEGRADATION” (Amphista Therapeutics Limited, priority 2022, published 2026)
